Assay [1] deals with T1, BTK (Homo sapiens (Human), UniProt Q06187). As to the kind of experiment: BTK inhibition assay by Reaction Biology Corporation (33P-ATP, filter-binding). Format: biochemical. The conditions noted are these: footnote a: from Reaction Biology Corporation. Here is the method:
(§1) BTK inhibition Assay and selectivity Assay The assay was conducted either a by a third party (Reaction Biology Corporation, PA, USA) or in house.
a) Reagent and Procedure by Reaction Biology Corporation:
Base Reaction buffer; 20 mM Hepes (pH 7.5), 10 mM MgCl2, 1 mM EGTA, 0.02%. Brij35, 0.02 mg/ml BSA, 0.1 mM Na3VO4, 2 mM DTT, 1% DMSO. Required cofactors were added individually to each kinase reaction. Compound handling: testing compounds were dissolved in 100% DMSO to specific concentration. The serial dilution was conducted by Integra Viaflo Assist in DMSO.
The substrate was prepared in freshly prepared reaction buffer of above and required cofactors were added to the substrate solution. The kinase was delivered to the substrate solution and the mixture was gently mixed. Testing compounds in 100% DMSO was added to the kinase reaction mixture by Acoustic technology (Echo550; nanoliter range) and the new mixture was incubated for 20 min at room temperature. Then ^33P-ATP (Specific activity 10 μCi/μl) was added to the reaction mixture to initiate the reaction and the mixture was incubated for 2 hours at room temperature. The radioactivity was detected by filter-binding method and the kinase activity data was expressed as the percent of remaining kinase activity in test sample compared to vehicle (dimethyl sulfoxide) reaction. IC50 values and curve fits were obtained using Prism (GraphPad Software). The result is outlined in Table-I

Assay [2] addresses T1, BTK. The assay can be described thus: In house ELISA kinase inhibition assay, BTK. Type of assay: biochemical. As to conditions: footnote b: from in house procedure (ELISA). Here is the method:
as §1
b) In House Procedure for BTK, BMX, EGFR and ITK:
Kinase inhibitory activities of compounds were evaluated using the Enzyme-linked immunosorbent assay (ELISA). The kinase enzyme of BTK, BMX, EGFR and ITK were purchased from Carna Bioscience (Kobe, Japan). A total of 10 ng/mL antiphosphotyrosine (PY713) antibody (abcam, Cambridge Science Park, UK) was precoated in 96-well ELISA plates. The kinase enzymes in each reaction well were set to BTK (101.25 ng/mL), BMX (90 ng/mL), EGFR (90 ng/mL) or ITK (120 ng/mL) and incubated with indicated drugs in 1× reaction buffer (50 mmol/L HEPES pH 7.4, 20 mmol/L MgCl2, 0.1 mmol/L MnCl2, 1 mmol/L DTT) containing 20 μmol/L (the final concentration of substrate in ITK reaction was 30 μmol/L) substrate (NH2-[…]-biotin) at 25° C. for 1 h. Then, a total of 3 μmol/L ATP was added and the reaction was continued for 2 h. The products of reaction were transferred into 96-well ELISA plates containing antibody and incubated at 25° C. for 30 min. After incubation, the wells were washed with PBS and then incubated with horseradish peroxidase (HRP)-conjugated streptavidin. The wells were visualized using 3,3′,5,5′-tetramethylbenzidine (TMB), and chromogenic reaction was ended with 2 mol/L H2SO4, the absorbance was read with a multimode plate reader (PerkinElmer, USA) at 450 nm. IC50 values and curve fits were obtained using Prism (GraphPad Software). (Table I-IV)
On the technique in general: ELISA stands for enzyme-linked immunosorbent assay.

For the next assay, the system named is TMD-8. The assay can be described thus: In-vitro antitumor activity assay (CellTiter-Glo cell antiproliferative activity). Type of assay: cell-based. As to conditions: Homo sapiens, TMD8, TMD-8 cells, 72 h. Here is the method:
In-Vitro Antitumor Activity Assay
Method: Reagent and procedure by Hefei PreceDo pharmaceuticals Co. Ltd.
Cell antiproliferative activity was evaluated by the CellTiter-Glo (Promega, USA) assay. Make 1000× compounds solution in DMSO, add 1 μl 1000× compounds to […] growth medium to make 20× compounds. Dilute cell suspensions in growth medium to desired density and 95 μl were taken to 96-well plate. Add 5 μl 20× compounds into 96-well plate according to the plate map. Final DMSO concentration in each well was 0.1%. Then the cell was incubated at 37° C., 5% CO2 for 72 h. Equilibrate the assay plate to room temperature before measurement. Add 20 μl of CellTiter-Glo© Reagent into each well. Mix contents for 2 minutes on an orbital shaker to induce cell lysis. Incubate at room temperature for 10 minutes to stabilize luminescent signal. Record luminescence using EnVision Multilabel Reader (PerkinElmer). Cell viability (CV %) was calculated relative to vehicle (DMSO) treated control wells using following formula: Cell viability (%)=(RLU compound−RLU blank)/(RLU control−RLU blank)*100%. The IC50 values were calculated using GraphPad Prism 6.0 software, fitting to a 4-parameter equation to generate concentration response curves. All assays were conducted with three parallel samples and three repetitions.
(In ATP-based viability assays light output follows the ATP content of the culture.)

T1 sequence (Q06187 whole entry): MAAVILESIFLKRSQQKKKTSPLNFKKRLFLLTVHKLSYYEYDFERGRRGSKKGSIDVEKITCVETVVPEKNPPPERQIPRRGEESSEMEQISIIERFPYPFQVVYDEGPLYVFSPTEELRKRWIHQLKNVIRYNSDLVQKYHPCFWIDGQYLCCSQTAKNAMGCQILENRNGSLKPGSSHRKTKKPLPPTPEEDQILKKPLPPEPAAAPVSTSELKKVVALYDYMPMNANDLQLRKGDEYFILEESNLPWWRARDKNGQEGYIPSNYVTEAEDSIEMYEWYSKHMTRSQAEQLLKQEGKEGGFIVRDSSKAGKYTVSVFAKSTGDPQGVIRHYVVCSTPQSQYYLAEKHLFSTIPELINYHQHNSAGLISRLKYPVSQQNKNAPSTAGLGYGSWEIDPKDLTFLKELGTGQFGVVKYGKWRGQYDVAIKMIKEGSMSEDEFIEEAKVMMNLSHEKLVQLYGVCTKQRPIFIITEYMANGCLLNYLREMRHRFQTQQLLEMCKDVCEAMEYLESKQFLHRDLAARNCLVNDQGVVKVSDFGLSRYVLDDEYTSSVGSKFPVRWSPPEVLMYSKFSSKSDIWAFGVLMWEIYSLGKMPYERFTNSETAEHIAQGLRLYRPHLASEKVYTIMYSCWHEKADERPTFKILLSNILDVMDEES

Broadly, the IC50 is the concentration that inhibits the measured activity by half. A lower IC50 goes with higher potency. `C=CC(=O)N1CCC[C@H]1c1nc(-c2ccc(C(=O)Nc3ccccn3)cc2)c(C(N)=O)n1N` [Example 1, (S)-2-(1-acryloylpyrrolidin-2-yl)-1-amino-4-(4-(pyridin-2-yl-carbamoyl)phenyl)-1H-imidazole-5-carboxamide]: the IC50 is 131 nM at BTK [1] and 176 nM against BTK [2].

Turning to `C#CC(=O)N1CCC[C@H]1c1nc(-c2ccc(C(=O)Nc3cc(C)ccn3)cc2)c(C(N)=O)n1N` [Example 17, (S)-1-amino-4-(4-((4-methylpyridin-2-yl)carbamoyl)phenyl)-2-(1-propioloylpyrrolidin-2-yl)-1H-imidazole-5-carboxamide], the values for the 50% inhibitory concentration (IC50) on BTK [1] and at BTK [2] were 24.4 nM and 30.3 nM, respectively.

On to `CC#CC(=O)N1CCC[C@H]1c1nc(-c2ccc(C(=O)Nc3cc(C)ccn3)cc2)c(C(N)=O)n1N` [Example 18, (S)-1-amino-2-(1-(but-2-ynoyl)pyrrolidin-2-yl)-4-(4-((4-methylpyridin-2-yl)carbamoyl)phenyl)-1H-imidazole-5-carboxamide], for which the IC50 at BTK [1] was found to be 7200 nM; on BTK [2], 3080 nM.

Turning to `C#CC(=O)N1CCC[C@H]1c1nc(-c2ccc(C(=O)Nc3ccc(C)cn3)cc2)c(C(N)=O)n1N` [Example 26, (S)-1-amino-4-(4-((5-methylpyridin-2-yl)carbamoyl)phenyl)-2-(1-propioloylpyrrolidin-2-yl)-1H-imidazole-5-carboxamide], the 50% inhibitory concentration (IC50) on BTK [1] is 12.5 nM; on BTK [2] it was 18.4 nM.

Turning to `C#CC(=O)N1CCC[C@H]1c1nc(-c2ccc(C(=O)Nc3cc(OC)ccn3)cc2)c(C(N)=O)n1N` [Example 33, (S)-1-amino-4-(4-((4-methoxypyridin-2-yl)carbamoyl)phenyl)-2-(1-propioloylpyrrolidin-2-yl)-1H-imidazole-5-carboxamide], at BTK [1], the half-inhibitory concentration (IC50) was 13.5 nM. This counts as double-digit nanomolar.

The molecule `CCc1ccnc(NC(=O)c2ccc(-c3nc([C@@H]4CCCN4C(=O)C=C(C)C)n(N)c3C(N)=O)cc2)c1` [Example 37, (S)-1-amino-4-(4-((4-ethylpyridin-2-yl)carbamoyl)phenyl)-2-(1-(3-methylbut-2-enoyl)pyrrolidin-2-yl)-1H-imidazole-5-carboxamide] yielded an IC50 on BTK [1] of 2210 nM.

As for `C=CC(=O)N1CCCC[C@H]1c1nc(-c2ccc(C(=O)Nc3ccccn3)cc2)c(C(N)=O)n1N` [Example 46, (S)-2-(1-acryloylpiperidin-2-yl)-1-amino-4-(4-(pyridin-2-ylcarbamoyl)phenyl)-1H-imidazole-5-carboxamide], the IC50 on BTK [1] was 44.6 nM; at BTK [2], 13.1 nM.

With `C=CC(=O)N1CCCC[C@H]1c1nc(-c2ccc(C(=O)Nc3cc(C(C)C)ccn3)cc2)c(C(N)=O)n1N` [Example 71, (S)-2-(1-acryloylpiperidin-2-yl)-1-amino-4-(4-((4-isopropylpyridin-2-yl)carbamoyl)phenyl)-1H-imidazole-5-carboxamide], the 50% inhibitory concentration (IC50) at BTK [1] came out at 55.1 nM; on BTK [2], 22.6 nM.

On to `C=CC(=O)N1CCCC[C@H]1c1nc(-c2ccc(C(=O)Nc3cc(Cl)ccn3)cc2)c(C(N)=O)n1N` [Example 72, (S)-2-(1-acryloylpiperidin-2-yl)-1-amino-4-(4-((4-chloropyridin-2-yl)carbamoyl)phenyl)-1H-imidazole-5-carboxamide], for which the results for the half-maximal inhibitory concentration (IC50) at BTK [1], against BTK [2] and with TMD-8 were 10.1 nM, 11.2 nM and 19 nM, respectively.

`C=CC(=O)N1CCCC[C@H]1c1nc(-c2ccc(C(=O)Nc3cc(CC)ccn3)cc2)c(C(N)=O)n1N` [Example 73, (S)-2-(1-acryloylpiperidin-2-yl)-1-amino-4-(4-((4-ethylpyridin-2-yl)carbamoyl)phenyl)-1H-imidazole-5-carboxamide] had a concentration for half-maximal inhibition (IC50) at BTK [1] of 9.68 nM.

`C=CC(=O)N1CCCC[C@H]1c1nc(-c2ccc(C(=O)Nc3cc(CC)ccn3)cc2)c(C(N)=O)n1NC` [Example 81, (S)-2-(1-acryloylpiperidin-2-yl)-4-(4-((4-ethylpyridin-2-yl)carbamoyl)phenyl)-1-(methylamino)-1H-imidazole-5-carboxamide] showed a concentration for half-maximal inhibition (IC50) at BTK [1] of 11 nM. This IC50 and that of the molecule before are within 1.5-fold of each other.

`C=CC(=O)N1CCCC[C@H]1c1nc(-c2ccc(C(=O)Nc3ccc(Cl)cn3)cc2)c(C(N)=O)n1N` [Example 86, (S)-2-(1-acryloylpiperidin-2-yl)-1-amino-4-(4-((5-chloropyridin-2-yl)carbamoyl)phenyl)-1H-imidazole-5-carboxamide] returned an IC50 at BTK [1] of 29.2 nM.

On BTK [1], `C=CC(=O)N1CCCC[C@H]1c1nc(-c2ccc(C(=O)Nc3cc(Br)ccn3)cc2)c(C(N)=O)n1N` [Example 87, (S)-2-(1-acryloylpiperidin-2-yl)-1-amino-4-(4-((4-bromopyridin-2-yl)carbamoyl)phenyl)-1H-imidazole-5-carboxamide] returned an IC50 of 4.38 nM.

As to `CC#CC(=O)N1CCCC[C@H]1c1nc(-c2ccc(C(=O)Nc3cc(Br)ccn3)cc2)c(C(N)=O)n1N` [Example 88, (S)-1-amino-4-(4-((4-bromopyridin-2-yl)carbamoyl)phenyl)-2-(1-(but-2-ynoyl)piperidin-2-yl)-1H-imidazole-5-carboxamide], at BTK [1], the 50% inhibitory concentration (IC50) was found to be 22.6 nM.

In turn, `C=CC(=O)N1CCCC[C@H]1c1nc(-c2ccc(C(=O)Nc3cc(I)ccn3)cc2)c(C(N)=O)n1N` [Example 89, (S)-2-(1-acryloylpiperidin-2-yl)-1-amino-4-(4-((4-iodopyridin-2-yl)carbamoyl)phenyl)-1H-imidazole-5-carboxamide] came in with an IC50 at BTK [1] of 6.12 nM.

As for `C=CC(=O)N1CCCC[C@H]1c1nc(-c2ccc(C(=O)Nc3cc(-c4ccc(F)cc4)ccn3)cc2)c(C(N)=O)n1N` [Example 91, (S)-2-(1-acryloylpiperidin-2-yl)-1-amino-4-(4-((4-(4-fluorophenyl)pyridin-2-yl)carbamoyl)phenyl)-1H-imidazole-5-carboxamide], on BTK [1], the IC50 amounted to 4.97 nM.

The molecule `C=CC(=O)N1CCC[C@@H](c2nc(-c3ccc(C(=O)Nc4cc(CC)ccn4)cc3)c(C(N)=O)n2N)C1` [Example 93, (R)-2-(1-acryloylpiperidin-3-yl)-1-amino-4-(4-((4-ethylpyridin-2-yl)carbamoyl)phenyl)-1H-imidazole-5-carboxamide] had an IC50 at BTK [1] of 14.6 nM.

Take `C=CC(=O)N1CCCC[C@H]1c1nc(-c2ccc(C(=O)Nc3nccs3)cc2)c(C(N)=O)n1N` [Example 105, (S)-2-(1-acryloylpiperidin-2-yl)-1-amino-4-(4-(thiazol-2-ylcarbamoyl)phenyl)-1H-imidazole-5-carboxamide]: the IC50 on BTK [1] was 18.7 nM.

The values are drawn from patent publication US12291516B2, “Substituted 1-amino-1H-imidazole-5-carboxamide as Bruton's tyrosine kinase inhibitors” (Henan Zhiwei Biomedicine Co., Ltd., priority 2019, dated 2025).
